# Data as given in paper PMC3165048 (Chemistry & biology, 2010).
# Columns and labels:
# [1] = tested on: Replicating M. tuberculosis; test: Minimum inhibitory concentration in replicating M. tuberculosis culture; assay type: cell-based, M. tuberculosis H37Rv
# MtMetAP1a = MtMetAP1a (Mycobacterium tuberculosis, UniProt P9WK20); test: Coupled methionine-proline aminopeptidase enzymatic assay; assay type: biochemical; conditions: […] CoCl2, 600 µM Met-Pro-pNA, 20 min pre-incubation
# [2] = tested on: Aged-cultured (non-replicating) M. tuberculosis; test: microbe, parasite or virus in culture; assay type: cell-based, M. tuberculosis H37Ra; conditions: Mycobacterium tuberculosis, read-out: M.I.C. Aged-cultured M. tuberculosis
# MtMetAP1c = MtMetAP1c (Mycobacterium tuberculosis, UniProt P9WK18); test: biochemical; conditions: […] CoCl2, 600 µM Met-Pro-pNA, 20 min pre-incubation
# Chain of MtMetAP1c (P9WK18 whole entry): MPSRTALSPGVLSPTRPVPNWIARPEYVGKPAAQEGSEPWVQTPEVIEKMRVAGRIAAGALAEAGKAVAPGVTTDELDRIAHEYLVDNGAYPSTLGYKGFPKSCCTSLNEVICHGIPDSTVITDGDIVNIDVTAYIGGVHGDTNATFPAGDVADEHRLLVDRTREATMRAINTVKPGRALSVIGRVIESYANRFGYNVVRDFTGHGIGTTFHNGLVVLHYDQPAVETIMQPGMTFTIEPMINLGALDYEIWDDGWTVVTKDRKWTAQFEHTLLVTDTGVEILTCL
# Chain of MtMetAP1a (P9WK20 whole entry): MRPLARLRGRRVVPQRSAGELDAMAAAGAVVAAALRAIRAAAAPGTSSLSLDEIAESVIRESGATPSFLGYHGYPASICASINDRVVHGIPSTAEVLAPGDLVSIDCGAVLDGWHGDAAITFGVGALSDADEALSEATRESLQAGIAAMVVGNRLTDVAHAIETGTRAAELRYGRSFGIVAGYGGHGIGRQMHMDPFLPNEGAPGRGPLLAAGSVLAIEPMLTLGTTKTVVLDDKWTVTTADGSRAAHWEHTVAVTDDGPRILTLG
structure (smiles),measurement,setting,value
"O=C1C(Cl)=C(Cl)C(=O)c2ccccc21 [Compound 4, 2,3-dichloro-1,4-naphthoquinone]",M.I.C. Replicating M. tuberculosis,[1],10 µg/mL
same,IC50,MtMetAP1a,3.3 ± 0.3 µM
same,MIC,[2],5.7 to 11.4 µg/mL
same,IC50,MtMetAP1c,6.6 ± 1.2 µM
